{"source": "patent US10203334B2", "about": "“Methods and compositions related to nucleic acid binding assays” (Nubad, LLC, priority 2012, dated 2019)", "key": {"d(GGGGCCCC)2": {"test_system": "d(GGGGCCCC)2", "type": "physicochemical", "text": "(§1) The local electrostatic potential (Ψ) in the major groove is given by the following Equation 3. Ψ=−[R·T·ln 10/(NA·e)]ΔpKa Eq. (3) Where ΔpKa is the difference between the free Fluorescein-neomycin and the Fluorescein-neomycin in the presence of the electrostatic environment, R is the universal gas constant, T is the absolute temperature in kelvin, NA is the Avogadro constant, and e is the elementary charge. R=8.312 J mol−1K−1, T=298.2K, NA=6.023×10^23 and e=1.602×10^−19; Ψ is expressed in mV. Thus a shift of +1 in the value of the pKa implies an electrostatic potential of […]. […] Based on this Δpka of 0.86, the electrostatic potential of the microenvironment for the fluorescein moiety in the complex is determined to be −50.9 mV.\n(§2) Determination of the pKa was done using chemometric analysis of the absorption profiles at various pH values of the covalently attached fluorescein moiety (Kubista, M., et al., (1993) Anal. Chem. 65, 994-998, Kubista, M., et al., (1995) Anal. Chim. Acta. 302, 121-125.2, 3). The pH dependent absorption profile of free fluorescein-neomycin was first analyzed to determine its pKa. […] The electrostatic potential (P) calculated from the shift in pKa, and the ITC derived binding constant (K). Electrostatic potential experiments performed in 100 mM NaCl, 10 mM SC, 0.5 mM EDTA at 25° C. ITC experiments performed in 50 mM KCl, 10 mM SC, 0.5 mM EDTA (pH 6.0) at 25° C. […] Fluorescein-neomycin concentration was 10 μM. Table 1 represents the pKa values determined from the inflection point of the pH dependent absorbance scans of free fluorescein-neomycin, fluorescein-neomycin with one molar equivalent d(CCCCGGGG)2 and d(GGGGCCCC)2. The electrostatic potential (Y) calculated from the shift in pKa, and the ITC derived binding constant (K)."}, "d(CCCCGGGG)2": {"test_system": "d(CCCCGGGG)2", "type": "physicochemical", "text": "as §1, §2"}, "[1]": {"test": "pKa of free probe from pH-dependent absorbance spectra", "type": "physicochemical", "protocol": "The mechanism for change in fluorescence of F-Neo upon binding to A-site rRNA oligonucleotide (SEQ ID No. 1) using UV absorption spectroscopy was investigated. Effect of pH on the absorbance spectra of 3.0 mM fluorescein-neomycin in 20 mM MOPSO, 0.4 mM EDTA, 50 mM NaCl at the indicated pH values were studied.\nWith increasing pH, fluorescein-neomycin undergoes a transition between mono-anion and di-anion species. Fluorescein-neomycin concentration was 10 μM in 100 mM NaCl, 10 mM SC, 0.5 mM EDTA. As indicated by its absorbance spectra in FIG. 8A, the F-neo transitions from a mono-anion to a di-anion with increasing pH. FIG. 8B compares the absorbance spectra between the mono-anion and di-anion species of fluorescein neomycin. […] The absorbance peak of about 490 nm in FIGS. 8A and 8B is consistent with the phenolate species of fluorescein. The pKa for the equilibrium of the phenol and phenolate forms of F-neo (42a) was measured by evaluating the absorbance spectrum as a function of pH and shown to be 6.84. […] When monitoring the absorption spectrum in the presence of the A-site RNA (SEQ ID No. 1), a reduction in A490 consistent with the change in pKa was observed. […] This shift in pKa causes a change in the fluorescence intensity of F-neo (42a). […]"}, "[2]": {"test_system": "E. coli ribosomal A-site (SEQ ID No. 1)", "test": "Quenching of F-neo by ribosomal A-site mimics, 96-well", "type": "binding", "details": "0.1 μM RNA to 0.1 μM F-neo (42a); em 535 nm, ex 485 nm; ten wells averaged", "protocol": "(§3) Disclosed is an HTS showing the difference in the binding affinity of fluorescene-neomycin (F-neo (42a)) to various synthetic RNA sequence 27 bases long designed to mimic the ribosomal A-site using a 96 well plate format and a fluorescent plate reader. Differences in binding are determined by the differential quenching of F-neo (42a) upon binding to the RNA.\n(§4) Following the SOP's established for F-neo (42a) binding to E. coli A-site, each sequence was added at 0.1 μM RNA to 0.1 μM F-neo (42a) using 100 reads/well using a Tecan Genios Pro plate reader in a 96 well Greiner black plate. The emission was measured at wavelength 535 nm, using an excitation wavelength of 485 nm. All experiments were performed in 10 mM hepes (7.0), 50 mM NaCl, and 0.4 mM EDTA."}, "[3]": {"test_system": "mitochondria ribosomal A-site (SEQ ID NO. 3)", "test": "Quenching of F-neo by ribosomal A-site mimics, 96-well", "type": "binding", "details": "0.1 μM RNA to 0.1 μM F-neo (42a); em 535 nm, ex 485 nm; ten wells averaged", "protocol": "as §3, §4"}, "[4]": {"test_system": "human ribosomal A-site (SEQ ID NO. 2)", "test": "Quenching of F-neo by ribosomal A-site mimics, 96-well", "type": "binding", "details": "0.1 μM RNA to 0.1 μM F-neo (42a); em 535 nm, ex 485 nm; ten wells averaged", "protocol": "as §3, §4"}, "[5]": {"test_system": "mutant mitochondria ribosomal A-site (SEQ ID NO. 4)", "test": "Quenching of F-neo by ribosomal A-site mimics, 96-well", "type": "binding", "details": "0.1 μM RNA to 0.1 μM F-neo (42a); em 535 nm, ex 485 nm; ten wells averaged", "protocol": "as §3, §4"}, "[6]": {"details": "electrostatic potential calculated from the shift in pKa"}, "[7]": {"details": "versus free fluorescein-neomycin"}}, "note": "Read-outs that look alike come from different tables or passages of the source."}
{"smiles": "NCC1O[C@H](OC2C(O)C(OC3C(O)[C@H](N)CC(N)[C@H]3O[C@H]3OC(CN)[C@@H](O)C(O)C3N)O[C@@H]2CSCCNC(=O)CCSCC(=O)Nc2ccc(-c3c4ccc(=O)cc-4oc4cc(O)ccc34)c(C(=O)O)c2)C(N)C(O)[C@@H]1O", "note": "(stereo partly drawn) [F-neo (42a), Neomycin-Fluorescein Conjugate]", "values": [{"measurement": "Ψ (mV)", "setting": "d(GGGGCCCC)2; [6]", "value": "−25.61", "unit": "mV"}, {"measurement": "pKa", "setting": "d(GGGGCCCC)2; one molar equivalent d(GGGGCCCC)2, 100 mM NaCl, 10 mM SC, 0.5 mM EDTA at 25° C.", "value": 7.01}, {"measurement": "ΔpKa", "setting": "d(GGGGCCCC)2; [7]", "value": 0.44}, {"measurement": "Ψ (mV)", "setting": "d(CCCCGGGG)2; [6]", "value": "−15.13", "unit": "mV"}, {"measurement": "pKa", "setting": "d(CCCCGGGG)2; one molar equivalent d(CCCCGGGG)2, 100 mM NaCl, 10 mM SC, 0.5 mM EDTA at 25° C.", "value": 6.83}, {"measurement": "ΔpKa", "setting": "d(CCCCGGGG)2; [7]", "value": 0.26}, {"measurement": "pKa", "setting": "[1]; buffer: 100 mM NaCl, free, 10 μM, 100 mM NaCl, 10 mM SC, 0.5 mM EDTA at 25° C., read-out: pKa", "value": 6.57}, {"measurement": "pKa", "setting": "[1]; free probe, absorbance spectrum as a function of pH, read-out: pKa for the equilibrium of the phenol and phenolate forms", "value": 6.84}, {"measurement": "fluorescence of F-neo with RNA", "setting": "[2]", "value": "7963 (±221)"}, {"measurement": "fluorescence of F-neo with RNA", "setting": "[3]", "value": "11987 (±445)"}, {"measurement": "fluorescence of F-neo with RNA", "setting": "[4]", "value": "9503 (±208)"}, {"measurement": "fluorescence of F-neo with RNA", "setting": "[5]", "value": "8515 (±230)"}]}
